# Results from patent US11566007B2, “Ras inhibitors” (Revolution Medicines, Inc., priority 2019, dated 2023).
# Several values for one entry are separate records, joined by “and”; a condition that tells them apart may be missing. Identical values can stand only once. Like-named read-outs stand apart in the source and are kept apart here.
# How the values were obtained:
# NCI-H358 (K-Ras G12C) = test: CellTiter-Glo cell viability assay, NCI-H358; format: cell-based, human; conditions: NCI-H358, 5-day treatment, class symbols, read-out: Additional H358 Cell Viability assay data (K-Ras G12C, IC50)
# How it was run: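 Luminescent viability readout on day 5 after direct compound addition to plated cells; plates sat ~30 min at room temperature before reading. Values expressed as percent of mean DMSO signal, curves fit with a four-parameter logistic model.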
# K-Ras G13C = K-Ras G13C (Homo sapiens (Human), UniProt P01116+P62937, G13C); test: Ras-Raf (BRAF RBD) disruption / FRET / MOA assay, KRAS G13C; format: biochemical; conditions: KRAS G13C; Ras-Raf disruption/FRET/MOA assay; read-out: IC50* KRAS G13C FRET data
# K-Ras G13C, sequence (P01116-2 other isoform, or with tags, fused parts or gaps G13C): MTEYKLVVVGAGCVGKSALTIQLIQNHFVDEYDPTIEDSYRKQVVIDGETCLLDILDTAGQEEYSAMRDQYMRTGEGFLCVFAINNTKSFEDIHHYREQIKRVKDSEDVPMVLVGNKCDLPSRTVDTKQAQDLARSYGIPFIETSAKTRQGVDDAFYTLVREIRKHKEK
# K-Ras G13C, sequence (P62937 whole entry): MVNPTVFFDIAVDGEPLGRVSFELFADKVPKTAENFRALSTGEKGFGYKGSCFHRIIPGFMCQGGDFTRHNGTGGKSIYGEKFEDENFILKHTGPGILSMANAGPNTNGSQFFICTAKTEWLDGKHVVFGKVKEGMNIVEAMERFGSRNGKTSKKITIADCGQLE
# How it was run: (§1)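 Ternary complex formation (Ras–compound–cyclophilin A) displacing BRAF RBD, monitored by TR-FRET. Three hours at 25° C with compound (top 30 μM final), then 1.5 h with the labelled antibodies. Lower ratio than DMSO indicates disruption; IC50 reported.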
# KRAS G12D = KRAS G12D (Homo sapiens (Human), UniProt P01116+P62937, G12D); test: Ras-Raf (BRAF RBD) disruption / FRET / MOA assay, KRAS G12D; format: biochemical; conditions: Ras-Raf disruption/FRET/MOA assay; class symbols; read-out: KRAS G12D FRET data IC50
# KRAS G12D, sequence (P01116-2 other isoform, or with tags, fused parts or gaps G12D): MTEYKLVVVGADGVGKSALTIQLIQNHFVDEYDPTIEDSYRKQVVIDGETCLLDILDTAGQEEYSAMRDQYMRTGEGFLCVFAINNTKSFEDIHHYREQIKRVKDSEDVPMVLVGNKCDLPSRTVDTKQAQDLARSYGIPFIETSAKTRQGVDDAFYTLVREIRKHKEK
# KRAS G12D, sequence (P62937 whole entry): as the sequence (P62937 whole entry) above
# How it was run: as §1
# KRAS WT = KRAS WT (Homo sapiens (Human), UniProt P01116+P62937); test: Ras-Raf (BRAF RBD) disruption / FRET / MOA assay, KRAS WT; format: biochemical; conditions: read-out: IC50* KRAS WT FRET data
# KRAS WT, sequence (P01116-2 other isoform, or with tags, fused parts or gaps): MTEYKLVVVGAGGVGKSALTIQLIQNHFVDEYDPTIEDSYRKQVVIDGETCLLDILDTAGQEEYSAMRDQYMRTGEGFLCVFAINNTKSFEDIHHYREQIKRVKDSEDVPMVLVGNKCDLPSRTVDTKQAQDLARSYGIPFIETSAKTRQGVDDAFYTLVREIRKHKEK
# KRAS WT, sequence (P62937 whole entry): as the sequence (P62937 whole entry) above
# How it was run: as §1
# KRAS Q61H = KRAS Q61H (Homo sapiens (Human), UniProt P01116+P62937, Q61H); test: Ras-Raf (BRAF RBD) disruption / FRET / MOA assay, KRAS Q61H; format: biochemical; conditions: Ras-Raf disruption/FRET/MOA assay; class symbols; read-out: KRAS Q61H FRET data IC50
# KRAS Q61H, sequence (P01116-2 other isoform, or with tags, fused parts or gaps Q61H): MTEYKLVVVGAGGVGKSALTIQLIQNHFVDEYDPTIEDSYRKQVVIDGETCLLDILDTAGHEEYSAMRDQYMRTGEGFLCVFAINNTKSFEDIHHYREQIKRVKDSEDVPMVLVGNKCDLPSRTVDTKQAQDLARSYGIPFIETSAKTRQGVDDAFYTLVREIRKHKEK
# KRAS Q61H, sequence (P62937 whole entry): as the sequence (P62937 whole entry) above
# How it was run: (§2)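 Compounds were tested as a 10-point 3-fold dilution series from 30 μM final for their ability to drive ternary complex formation between nucleotide-loaded Ras and cyclophilin A, displacing the BRAF RBD. After 3 h at 25° C., anti-His Eu-W1024 (10 nM) and anti-GST allophycocyanin (50 nM) were added for 1.5 h. A TR-FRET ratio decrease versus DMSO gave IC50.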
# NRAS Q61R = NRAS Q61R (Homo sapiens (Human), UniProt P01111+P62937, Q61R); test: Ras-Raf (BRAF RBD) disruption / FRET / MOA assay, NRAS Q61R; format: biochemical; conditions: NRAS Q61R; Ras-Raf disruption/FRET/MOA assay; read-out: IC50* NRAS Q61R FRET data
# NRAS Q61R, sequence (P01111 whole entry Q61R): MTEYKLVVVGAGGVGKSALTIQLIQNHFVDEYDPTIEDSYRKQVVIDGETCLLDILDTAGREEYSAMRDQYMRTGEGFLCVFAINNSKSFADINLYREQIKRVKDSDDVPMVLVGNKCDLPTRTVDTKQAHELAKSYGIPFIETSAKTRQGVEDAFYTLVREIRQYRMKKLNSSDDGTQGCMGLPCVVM
# NRAS Q61R, sequence (P62937 whole entry): as the sequence (P62937 whole entry) above
# How it was run: as §2
# NRAS Q61K = NRAS Q61K (Homo sapiens (Human), UniProt P01111+P62937, Q61K); test: Ras-Raf (BRAF RBD) disruption / FRET / MOA assay, NRAS Q61K; format: biochemical; conditions: NRAS Q61K; Ras-Raf disruption/FRET/MOA assay; read-out: IC50* NRAS Q61K FRET data
# NRAS Q61K, sequence (P01111 whole entry Q61K): as the sequence (P01111 whole entry Q61R) above, with R61K counted along it
# NRAS Q61K, sequence (P62937 whole entry): as the sequence (P62937 whole entry) above
# How it was run: as §2
IC50 (NCI-H358 (K-Ras G12C)) [nM],Structure (SMILES),"IC50 (NCI-H358 (K-Ras G12C); Homo sapiens, NCI-H358, 120 h) [nM]",IC50 (K-Ras G13C),IC50 (KRAS G12D),IC50 (KRAS WT),IC50 (KRAS Q61H) [nM],IC50 (NRAS Q61R) [nM],IC50 (NRAS Q61K) [nM]
–,"C=CC(=O)N1CC[C@H](C(=O)N(C)[C@H](C(=O)N[C@H]2Cc3cc(O)cc(c3)-c3ccc4c(c3)c(c(-c3cccnc3[C@H](CC)OC)n4CC)CC(C)(C)COC(=O)[C@@H]3CCCN(N3)C2=O)C(C)C)C1 (atropisomer, axis not shown) [Example A181]",10 to 100,100 to 1000 nM and 1000 to 10000 nM,1000 to 10000 nM and > 10000 nM,100 to 1000 nM and 1000 to 10000 nM,10 to 100,100 to 1000,100 to 1000
–,"C=CC(=O)N1CC[C@H](C(=O)N(C)[C@H](C(=O)N[C@H]2Cc3nc(ns3)-c3ccc4c(c3)c(c(-c3cccnc3[C@H](C)OC)n4CC)CC(C)(C)COC(=O)[C@@H]3CCCN(N3)C2=O)C(C)C)C1 (atropisomer, axis not shown) [Example A202]",10 to 100,> 10000 nM,> 10000 nM,> 10000 nM,1000 to 10000,> 10000,1000 to 10000
10 to 100,"C=CC(=O)N1CC[C@H](C(=O)N(C)[C@H](C(=O)N[C@H]2Cc3cc(O)cc(c3)-c3ccc4c(c3)c(c(-c3cccnc3[C@@H](OC)C3CC3)n4CC)CC(C)(C)COC(=O)[C@@H]3CCCN(N3)C2=O)C(C)C)C1 (atropisomer, axis not shown) [Example A207]",–,100 to 1000 nM,1000 to 10000 nM,100 to 1000 nM,10 to 100,100 to 1000,100 to 1000
–,"C=CC(=O)N1CC[C@H](C(=O)N(C)[C@H](C(=O)N[C@H]2Cc3cc(O)cc(c3)-c3ccc4c(c3)c(c(-c3cccnc3[C@@H]3CCCO3)n4CC)CC(C)(C)COC(=O)[C@@H]3CCCN(N3)C2=O)C(C)C)C1 (atropisomer, axis not shown) [Example A281]",10 to 100,10 to 100 nM and 100 to 1000 nM,1000 to 10000 nM,100 to 1000 nM,10 to 100,100 to 1000,100 to 1000
–,"C=CC(=O)N1CC[C@H](C(=O)N(C)[C@H](C(=O)N[C@H]2Cc3nc(n(C)n3)-c3ccc4c(c3)c(c(-c3cccnc3[C@H](C)OC)n4CC)CC(C)(C)COC(=O)[C@@H]3CCCN(N3)C2=O)C(C)C)C1 (atropisomer, axis not shown) [Example A314]",100 to 1000,100 to 1000 nM,1000 to 10000 nM,1000 to 10000 nM,100 to 1000,100 to 1000,100 to 1000
–,"C=CC(=O)N1CC[C@H](C(=O)N(C)[C@H](C(=O)N[C@H]2Cc3csc(n3)-c3ccc4c(c3)c(c(-c3cccnc3[C@H](C)OC)n4CC)CC(C)(C)COC(=O)[C@@H]3CCCN(N3)C2=O)C(C)C)C1 (atropisomer, axis not shown) [Example A330]",10 to 100,1000 to 10000 nM,1000 to 10000 nM,1000 to 10000 nM,100 to 1000,1000 to 10000,100 to 1000
–,"C=CC(=O)N1CC[C@]2(C1)CN(C(=O)N(C)[C@H](C(=O)N[C@H]1Cc3nc(cs3)-c3ccc4c(c3)c(c(-c3cccnc3[C@H](C)OC)n4CC)CC(C)(C)COC(=O)[C@@H]3CCCN(N3)C1=O)C(C)C)CCO2 (atropisomer, axis not shown) [Example A354]",10 to 100,100 to 1000 nM,100 to 1000 nM,100 to 1000 nM,10 to 100,100 to 1000,10 to 100
–,"C=CC(=O)N1CC[C@@]2(C1)OCN([C@H](C(=O)N[C@H]1Cc3cccc(c3)-c3ccc4c(c3)c(c(-c3cccnc3[C@H](C)OC)n4CC)CC(C)(C)COC(=O)[C@@H]3CCCN(N3)C1=O)C(C)C)C2=O (atropisomer, axis not shown) [Example A358]",10 to 100,100 to 1000 nM,1000 to 10000 nM,100 to 1000 nM,100 to 1000,1000 to 10000,1000 to 10000
–,"CO[C@@H](C)c1ncccc1-c1c2c3cc(ccc3n1CC(F)(F)F)-c1csc(n1)C[C@H](NC(=O)CCOC1CN(C(=O)C#CC(C)(C)N3CCC3)C1)C(=O)N1CCC[C@H](N1)C(=O)OCC(C)(C)C2 (atropisomer, axis not shown) [Example A363]",10 to 100,1000 to 10000 nM,> 10000 nM,1000 to 10000 nM,1000 to 10000,1000 to 10000,1000 to 10000
–,"C=CC(=O)N(C)C[C@H]1CCN1C(=O)N(C)[C@H](C(=O)N[C@H]1Cc2nc(cs2)-c2ccc3c(c2)c(c(-c2cccnc2[C@H](C)OC)n3CC)CC(C)(C)COC(=O)[C@@H]2CCCN(N2)C1=O)C(C)C (atropisomer, axis not shown) [Example A369]",10 to 100,100 to 1000 nM,1000 to 10000 nM,100 to 1000 nM,100 to 1000,100 to 1000,10 to 100
–,"C=CC(=O)N1CC[C@H](C(=O)N(C)[C@H](C(=O)N[C@H]2Cc3cccc(c3)-c3ccc4c(c3)c(c(-c3cccnc3[C@H](C)OC)n4CC)CC(C)(C)COC(=O)[C@@H]3CCCN(N3)C2=O)C(C)C)[C@H]1C (atropisomer, axis not shown) [Example A373]",10 to 100,100 to 1000 nM,1000 to 10000 nM,1000 to 10000 nM,100 to 1000,1000 to 10000,1000 to 10000
–,"CO[C@@H](C)c1ncccc1-c1c2c3cc(ccc3n1CC(F)(F)F)-c1cc(cc(C(F)F)c1)C[C@H](NC(=O)[C@@H](COC1CN(C(=O)C#CC(C)(C)N(C)C)C1)C(C)C)C(=O)N1CCC[C@H](N1)C(=O)OCC(C)(C)C2 (atropisomer, axis not shown) [Example A374]",10 to 100,> 10000 nM,> 10000 nM,> 10000 nM,> 10000,> 10000,> 10000
–,"CCn1c(-c2cccnc2[C@H](C)OC)c2c3cc(ccc31)-c1csc(n1)C[C@H](NC(=O)CCO[C@H]1CCN(C(=O)C#CC(C)(C)N3CCC3)C1)C(=O)N1CCC[C@H](N1)C(=O)OCC(C)(C)C2 (atropisomer, axis not shown) [Example A381]",10 to 100,1000 to 10000 nM,1000 to 10000 nM,1000 to 10000 nM,1000 to 10000,1000 to 10000,1000 to 10000
–,"C=CC(=O)N(C)C[C@@H]1CCN1C(=O)N(C)[C@H](C(=O)N[C@H]1Cc2nc(cs2)-c2ccc3c(c2)c(c(-c2cccnc2[C@H](C)OC)n3CC)CC(C)(C)COC(=O)[C@@H]2CCCN(N2)C1=O)C(C)C (atropisomer, axis not shown) [Example A390]",100 to 1000,100 to 1000 nM,1000 to 10000 nM,1000 to 10000 nM,100 to 1000,1000 to 10000,100 to 1000
–,"C=CC(=O)N1CC[C@H](C(=O)N(C)[C@H](C(=O)N[C@H]2Cc3cccc(c3)-c3ccc4c(c3)c(c(-c3cc(C5CN(C)C5)cnc3[C@H](C)OC)n4CC)CC(C)(C)COC(=O)[C@@H]3CCCN(N3)C2=O)C(C)C)C1 (atropisomer, axis not shown) [Example A392]",10 to 100,1000 to 10000 nM,> 10000 nM,1000 to 10000 nM,1000 to 10000,1000 to 10000,> 10000
–,"C=CC(=O)N1CC[C@H](C(=O)N(C)[C@H](C(=O)N[C@H]2Cc3cccc(n3)-c3ccc4c(c3)c(c(-c3cccnc3[C@H](C)OC)n4CC)CC(C)(C)COC(=O)[C@@H]3CCCN(N3)C2=O)C(C)C)C1 (atropisomer, axis not shown) [Example A442]",10 to 100,1000 to 10000 nM,> 10000 nM,> 10000 nM,1000 to 10000,1000 to 10000,1000 to 10000
